Experimental data taken from patent US7524880B2, “Crystalline form of a substituted pyrrolidine compound” (Theravance, Inc., priority 2004, dated 2009).
Structures can show the parent of a compound that is named as a salt. Blank lines part the entries; values can stand above or below the molecule they belong to.

Key:
[1] = test system: MCh-induced depressor responses; test: Methacholine-induced depressor responses in conscious guinea pigs; type: in vivo; details: conscious guinea pig, inhalation
From the text: Healthy, adult, male Sprague-Dawley guinea pigs (Harlan, Indianapolis, Ind.), weighing between 200 and 300 g were used in these studies. Under isoflurane anesthesia (to effect), animals were instrumented with common carotid artery and jugular vein catheters (PE-50 tubing). The catheters were exteriorized utilizing a subcutaneous tunnel to the subscapular area. All surgical incisions were sutured with 4-0 Ethicon Silk and the catheters locked with heparin (1000 units/mL). Each animal was administered saline (3 mL, SC) at the end of surgery as well as buprenorphine (0.05 mg/kg, IM). Animals were allowed to recover on a heating pad before being returned to their holding rooms.
Approximately 18 to 20 hours following surgery, the animals were weighed and the carotid artery catheter on each animal was connected to a transducer for recording arterial pressure. Arterial pressure and heart rate was recorded using a Biopac MP-100 Acquisition System. Animals were allowed to acclimate and stabilize for a period of 20 minutes.
Each animal was challenged with methylcholine (MCh) (0.3 mg/kg, iv) administer through the jugular venous line and the cardiovascular response was monitored for 10 minutes. […] At 1.5 and 24 h post-dosing, the animals were re-challenged with MCh (0.3 mg/kg, iv) and the hemodynamic response was determined. […]

[2] = Dynamic moisture sorption assessment; type: physicochemical; details: for deliquescence: exposed to atmospheric moisture
Method: A dynamic moisture sorption (DMS) assessment (also known as a moisture sorption-desorption profile) was performed for a sample of a crystalline naphthalene-1,5-disulfonic acid salt of 2-[(S)-1-(8-methylaminooctyl)pyrrolidin-3-yl]-2,2-diphenylacetamide (prepared according to the procedure of Example 5) using a VTI atmospheric microbalance, SGA-100 system (VTI Corp., Hialeah, Fla. 33016). A sample size of approximately 10 mg was used and the humidity was set at the ambient value at the start of the analysis. A typical DMS analysis consisted of three scans: ambient to 2% RH, 2% RH to 90% RH, 90% RH to 5% RH at a scan rate of 5% RH/step. The mass was measured every two minutes and the RH was changed to the next value (+/−5% RH) when the mass of the sample was stable to within 0.01% for 5 consecutive points.
The salt has an acceptable 1.9% weight gain when it exposed to a broad humidity range from 2% RH up to 90% RH and it has a less than 1% weight gain in the humidity range of 40% RH to 75% RH.

[3] = Solution state stability assessment (HPLC); type: physicochemical; details: for change in purity (HPLC): 1 mg/mL and 0.1 mg/mL in normal saline, 10 mM citrate pH 5
Method: Samples of the crystalline naphthalene-1,5-disulfonic acid salt of 2-[(S)-1-(8-methylaminooctyl)pyrrolidin-3-yl]-2,2-diphenylacetamide of Example 5 were used to prepare an inhalation solution consisting of 1 mg/mL and 0.1 mg/mL salt in normal saline with 10 mM citrate buffer adjusted to pH 5. The resulting solutions were placed in 3 mL borosilicate vials and stoppered with Teflon grey plug stoppers. The solutions were then stored at −20° C., 5° C., 30° C., 60° C. The samples were analyzed according to the HPLC method described in Example 10. After approximately six months for the solutions stored at −20° C., 5° C., and 30° C. there was no detectable change in purity observed (less than 0.5%) for samples stored at 60° C. less than 5% change in purity was observed.

[4] = Solid state stability assessment (HPLC); type: physicochemical
Method: Samples of the crystalline naphthalene-1,5-disulfonic acid salt of 2-[(S)-1-(8-methylaminooctyl)pyrrolidin-3-yl]-2,2-diphenylacetamide of Example 5, about 30 mg each, were stored in multiple 3 mL borosilicate vials at −20° C. (closed container), 40° C./75% RH (open and closed container), and at 80° C. (closed container). At specific intervals, the entire contents of a representative vial was analyzed by the following HPLC method:
Samples were prepared as 1 mg/mL solutions using 50% EtOH and 50% citrate buffer (10 mM pH 5 in normal saline). These solutions were then injected onto the HPLC.
The initial purity of the samples was 99.5% as determined by HPLC area percentage. […] (closed container) and 40° C./75% RH (open and closed container).

[5] = Thermal analysis (DSC/TGA); type: physicochemical; details: heating ramp 5° C./min, ambient to about 300° C.
Method: Differential scanning calorimetry (DSC) was performed using a TA Instruments Model Q-10 module with a Thermal Analyst controller. Data were collected and analyzed using TA Instruments Thermal Solutions software. A sample of about 1 mg was accurately weighed into an aluminum pan with lid. The sample was evaluated using a linear heating ramp of 5° C./min from ambient temperature to approximately 300° C. The DSC cell was purged with dry nitrogen during use. A representative DSC trace for a sample of the crystalline naphthalene-1,5-disulfonic acid salt of 2-[(S)-1-(8-methylaminooctyl)pyrrolidin-3-yl]-2,2-diphenylacetamide of Example 5 is shown in FIG. 2.
Thermogravimetric analysis (TGA) was performed using a TA Instruments Model Q-50 module equipped with high resolution capability. Data were collected and analyzed using TA Instruments Thermal Solutions software. A sample weighing about 10 mg was placed onto a platinum pan and scanned with a high resolution-heating rate from ambient temperature to 300° C. The balance and furnace chambers were purged with nitrogen flows during use. A representative TGA trace for a sample of the crystalline naphthalene-1,5-disulfonic acid salt of 2-[(S)-1-(8-methylaminooctyl)pyrrolidin-3-yl]-2,2-diphenylacetamide of Example 5 is shown in FIG. 2.

[6] = Micronization with a jet mill, comparison with unmicronized material; type: physicochemical; details: micronized compared to unmicronized material
From the text: A sample of a crystalline naphthalene-1,5-disulfonic acid salt of 2-[(S)-1-(8-methylaminooctyl)pyrrolidin-3-yl]-2,2-diphenylacetamide (prepared according to the procedure of Examples 4 and 5) was micronized with a jet mill to give a free-flowing white powder with birefringence observed upon microscopic examination.

[7] = solid, 3 months, all conditions

SMILES: CNCCCCCCCCN1CC[C@@H](C(C(N)=O)(c2ccccc2)c2ccccc2)C1 [Example 1, 2-[(S)-1-(8-Methylaminooctyl)pyrrolidin-3-yl]-2,2-diphenylacetamide]
apparent lung-selectivity index (ratio of anti-depressor ID50 to bronchoprotective ID50) [1]: greater than 5

weight gain on exposure to humidity ([2]; 2% RH up to 90% RH): 1.9%
weight gain on exposure to humidity ([2]; 2% RH up to 90% RH, listed as crystalline naphthalene-1,5-disulfonic acid salt of the compound of formula I): less than 2%
deliquescence [2]: not deliquescent
deliquescence ([2]; listed as crystalline naphthalene-1,5-disulfonic acid salt): not to be deliquescent
weight gain on exposure to humidity ([2]; humidity range of 40% RH to 75% RH): less than 1%
hygroscopicity (moderate) ([2]; reversible sorption/desorption profile): < 5%
change in purity (HPLC) ([3]; approximately six months at 60° C.): less than 5%
change in purity (HPLC) ([3]; approximately six months at −20° C., 5° C. and 30° C.): less than 0.5%
change in pH values of solutions ([3]; inhalation solutions in normal saline, 10 mM citrate pH 5, approximately six months): no appreciable change
chemical degradation by HPLC ([4]; 6 months storage at 40° C. and 75% relative humidity): no detectable chemical degradation
change in the appearance of the material [4, 7]: no observable change
differences by DSC and TGA [4, 7]: no detectable differences
change in chemical purity (HPLC) ([4]; solid, 3 months, all conditions: −20° C. closed, 40° C./75% RH open and closed, 80° C. closed): less than 0.5%
chemical degradation by HPLC ([4]; storage for 28 days at 40° C. and 75% relative humidity): less than 0.5%
thermal decomposition (DSC) [5]: no thermal decomposition below 200 °C
SMILES: CNCCCCCCCCN1CC[C@@H](C(C(N)=O)(c2ccccc2)c2ccccc2)C1 [Example 5, 2-[(S)-1-(8-Methylaminooctyl)pyrrolidin-3-yl]-2,2-diphenylacetamide Naphthalene-1,5-disulfonic Acid Salt]
chemical or physical differences ([4]; solid, 6 months at −20° C. (closed) and 40° C./75% RH (open and closed)): no detectable chemical or physical differences

change in PXRD pattern, TGA trace, DSC trace, DMS trace, chemical purity, chiral purity and moisture content [6]: No change was observed
SMILES: CNCCCCCCCCN1CC[C@@H](C(C(N)=O)(c2ccccc2)c2ccccc2)C1 [Example 14, naphthalene-1,5-disulfonic acid salt of 2-[(S)-1-(8-methylaminooctyl)pyrrolidin-3-yl]-2,2-diphenylacetamide]
